Molecular target: MASP-2 CCP2-SP (Homo sapiens (Human), UniProt O00187)
Assay: MASP-2 co-crystallization, X-ray crystallography and structure analysis (H-bonds, van der Waals contacts);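 as to Ligand-pharmacophore element distance, pharmacophore element C2: distance from averaged pharmacophore element to bound ligand; missing value means element absent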;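 as to Ligand-pharmacophore element distance, pharmacophore element C3: distance from averaged pharmacophore element to bound ligand; missing value means element absent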;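 as to Ligand-pharmacophore element distance, pharmacophore element C4: distance from averaged pharmacophore element to bound ligand; missing value means element absent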;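 as to Ligand-pharmacophore element distance, pharmacophore element C5: distance from averaged pharmacophore element to bound ligand; missing value means element absent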
Design: van der Waals contact distance, MASP-2 HIS 483 atom CD2 / van der Waals contact distance, MASP-2 HIS 483 atom NE2 / van der Waals contact distance, SER 654 C to compound atom / van der Waals contact distance, SER 654 O to compound atom / van der Waals contact distance, TRP 655 C to compound atom / van der Waals contact distance, MASP-2 GLY 528 atom CA / van der Waals contact distance TRP 655 atom CZ3 / van der Waals contact distance TRP 655 atom N / van der Waals contact distance TRP 655 atom CE3 / van der Waals contact distance GLY 656 atom C / van der Waals contact distance GLY 656 atom CA / van der Waals contact distance GLY 656 atom O / van der Waals contact distance, MASP-2 TYR 607 atom CD1 / van der Waals contact distance, MASP-2 PRO 606 atom O / d(C3,CA1) / d(CA1,N1)2 / d(H4,O1) / d(H4,O2) / d(O1,O2) / d(CA1,O2) / d(CA6,O1) / d(CA6,O2) / d(CA1,C5) / d(O2,H3) / d(N2,C2) / d(CA5,N2) / d(N2,C4) / d(N2,C6) / d(N2,CA3) / d(N2,O3) / d(O4,H2): unit not given beside the values
Details: for Ligand-pharmacophore element distance, pharmacophore element C2 / Ligand-pharmacophore element distance, pharmacophore element C3 / Ligand-pharmacophore element distance, pharmacophore element C4 / Ligand-pharmacophore element distance, pharmacophore element C5 / Ligand-pharmacophore element distance, pharmacophore element C6 / Ligand-pharmacophore element distance, pharmacophore element C7 / Ligand-pharmacophore element distance, pharmacophore element CA1 / Ligand-pharmacophore element distance, pharmacophore element CA2 / Ligand-pharmacophore element distance, pharmacophore element CA3 / Ligand-pharmacophore element distance, pharmacophore element CA4 / Ligand-pharmacophore element distance, pharmacophore element CA5 / Ligand-pharmacophore element distance, pharmacophore element CA6: Table A4-1; for d(N2,CA2) / d(O2,H3) / d(O2,N2) / d(N2,C4) / d(N2,C4)4: Table A5-2 pharmacophore distance, S3/S4 region; for a(O1, O2, H3) / a(O1, O2, N2) / a(O2, N2, CA2) / a(O2, N2, C4) / a(O2, N2, C4) 2: Table A6-2 pharmacophore angle; for Pharmacophore torsion angle a(O1, O2, N2, CA2): Table A7-2; for a(N1, CA1, O1) b): Methyl-amino-pyridine compounds
Procedure, shortened: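 First, CCP2-SP constructs with or without a 6His tag are produced in E. coli. Crystals are then soaked once or twice with inhibitor, cryoprotected in 20% glycerol or frozen directly, and diffracted at synchrotron beamlines. Phasing uses molecular replacement with parts of 1Q3X.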

[1] = Table A5-1 pharmacophore: distance between elements, S2/S1 region
[2] = Table A7-1, between pharmacophore elements of the bound compound
[3] = between pharmacophore elements of the bound compound

MASP-2 CCP2-SP, sequence (O00187 445-686): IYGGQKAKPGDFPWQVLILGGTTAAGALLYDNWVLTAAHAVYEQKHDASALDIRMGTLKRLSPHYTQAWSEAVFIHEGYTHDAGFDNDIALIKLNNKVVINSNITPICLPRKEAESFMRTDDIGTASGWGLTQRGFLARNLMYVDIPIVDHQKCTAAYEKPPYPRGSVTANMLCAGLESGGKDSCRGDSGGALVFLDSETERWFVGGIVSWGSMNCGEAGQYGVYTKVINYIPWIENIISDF
MASP-2 CCP2-SP, sequence (O00187 364-432 partner): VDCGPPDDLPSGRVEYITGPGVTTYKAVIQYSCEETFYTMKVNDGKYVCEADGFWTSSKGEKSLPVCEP

Row | SMILES | Ligand-pharmacophore element distance, pharmacophore element C2 | Ligand-pharmacophore element distance, pharmacophore element C3 | Ligand-pharmacophore element distance, pharmacophore element C4 | Ligand-pharmacophore element distance, pharmacophore element C5 | Ligand-pharmacophore element distance, pharmacophore element C6 | Ligand-pharmacophore element distance, pharmacophore element C7 | Ligand-pharmacophore element distance, pharmacophore element CA1 | Ligand-pharmacophore element distance, pharmacophore element CA2 | Ligand-pharmacophore element distance, pharmacophore element CA3 | Ligand-pharmacophore element distance, pharmacophore element CA4 | Ligand-pharmacophore element distance, pharmacophore element CA5 | Ligand-pharmacophore element distance, pharmacophore element CA6 | d(CA1,O1) [1] | d(CA1,O2) [1] | d(H4,O1) [1] | d(H4,O2) [1] | d(O1,O2) [1] | d(N2,CA2) | d(O2,H3) | d(O2,N2) | also measured
1 | C[C@H](NC(=O)[C@H]1C[C@H](Cc2ccccc2)CN1)C(=O)NCc1ccc(C(=N)N)cc1.Cl.Cl [1306_2] | 0 | 0 | 0 | 0 | 0 | 0 | 0.74 | 1.14 | 0 | 0 | 0 | 0 | 3.99 | 4.29 | 6.07 | 5.71 | 2.68 | 6.15 | 4.46 | 2.71 | d(CA1,N1) [1]: 3.60; a(CA1, O1, O2) (Table A6-1 pharmacophore angle): 114.80; a(O1, O2, H4) (Table A6-1 pharmacophore angle): 153.92; A(N1, CA1, O1) a) (Table A6-1 pharmacophore angle, all compounds with protonatable center N1 except Methyl-amino-pyridine): 161.00; a(O1, O2, H3): 151.24; a(O1, O2, N2): 153.80; a(O2, N2, CA2): 158.08; Pharmacophore torsion angle a(H4, O1, O2, H3) [2]: 40.51; Pharmacophore torsion angle a(H4, O1, O2, N2) [2]: 134.08; Pharmacophore torsion angle a(N1, CA1, O2, H4) [2]: −77.87; Pharmacophore torsion angle a(O1, H4, O2, CA1) [2]: −12.97; Pharmacophore torsion angle a(O1, O2, N2, CA2) [3]: 124.98
2 | Cc1nc(N)ccc1CNC(=O)[C@H](C)NC(=O)[C@H]1C[C@H](Cc2cccc(Cl)c2)CN1.Cl.Cl [1328_1] | 0 | 0.4 | 0.76 | 0 | 0 | 0 | 0.49 | 0.5 | 0 | 0 | 0 | 0 | 4.24 | 3.54 | 4.21 | 3.54 | 3.13 | 5.88 | 4.20 | 2.79 | d(C3,CA1) [1]: 2.85; d(CA1,N1)2 [1]: 1.37; d(N2,C4): 8.09; d(N2,C4)4: 8.09; a(C3, CA1, O1) (Table A6-1 pharmacophore angle): 150.62; a(CA1, O1, O2) (Table A6-1 pharmacophore angle): 101.20; a(O1, O2, H4) (Table A6-1 pharmacophore angle): 133.34; a(N1, CA1, O1) b) (Table A6-1 pharmacophore angle): 175.41; a(O1, O2, H3): 150.01; a(O1, O2, N2): 145.32; a(O2, N2, C4): 161.66; a(O2, N2, C4) 2: 114.03; a(O2, N2, CA2): 155.25; Pharmacophore torsion angle a(C3, CA1, O1, H4) [2]: 30.10; Pharmacophore torsion angle a(H4, O1, O2, H3) [2]: 55.62; Pharmacophore torsion angle a(H4, O1, O2, N2) [2]: 136.65; Pharmacophore torsion angle a(N1, CA1, O1, H4) [2]: 20.31; Pharmacophore torsion angle a(O1, H4, O2, CA1) [2]: −88.07; Pharmacophore torsion angle a(O1, O2, N2, CA2) [3]: 126.19
3 | Cc1nc(N)ccc1CNC(=O)[C@H](C)NC(=O)[C@H]1C[C@H](Cc2cccc(Cl)c2)CN1.Cl.Cl [1328_2] | 0 | 0.15 | 1.28 | 0 | 0 | 0 | 0.41 | 0.43 | 0 | 0 | 0 | 0 | 4.43 | 4.01 | 4.38 | 3.84 | 3.08 | 5.92 | 4.54 | 2.75 | d(C3,CA1) [1]: 2.85; d(CA1,N1)2 [1]: 1.38; d(N2,C4): 7.87; d(N2,C4)4: 7.87; a(C3, CA1, O1) (Table A6-1 pharmacophore angle): 150.10; a(CA1, O1, O2) (Table A6-1 pharmacophore angle): 103.89; a(O1, O2, H4) (Table A6-1 pharmacophore angle): 136.71; a(N1, CA1, O1) b) (Table A6-1 pharmacophore angle): 173.89; a(O1, O2, H3): 149.68; a(O1, O2, N2): 139.05; a(O2, N2, C4): 160.74; a(O2, N2, C4) 2: 109.44; a(O2, N2, CA2): 154.85; Pharmacophore torsion angle a(C3, CA1, O1, H4) [2]: 21.76; Pharmacophore torsion angle a(H4, O1, O2, H3) [2]: 51.26; Pharmacophore torsion angle a(H4, O1, O2, N2) [2]: 134.72; Pharmacophore torsion angle a(N1, CA1, O1, H4) [2]: −4.36; Pharmacophore torsion angle a(O1, H4, O2, CA1) [2]: −83.32; Pharmacophore torsion angle a(O1, O2, N2, CA2) [3]: 132.29
4 | Cc1nc(N)ccc1CNC(=O)[C@H](C)NC(=O)[C@H]1C[C@H](Cc2cccc(Cl)c2)CN1.Cl.Cl [1328_3] | 0 | 0.21 | 1.76 | 0 | 0 | 0 | 0.4 | 0.48 | 0 | 0 | 0 | 0 | 4.82 | 3.89 | 3.99 | 2.55 | 3.40 | 6.00 | 4.77 | 2.77 | d(C3,CA1) [1]: 2.85; d(CA1,N1)2 [1]: 1.38; d(N2,C4): 7.95; d(N2,C4)4: 7.95; a(C3, CA1, O1) (Table A6-1 pharmacophore angle): 150.74; a(CA1, O1, O2) (Table A6-1 pharmacophore angle): 97.62; a(O1, O2, H4) (Table A6-1 pharmacophore angle): 122.23; a(N1, CA1, O1) b) (Table A6-1 pharmacophore angle): 173.57; a(O1, O2, H3): 151.35; a(O1, O2, N2): 139.67; a(O2, N2, C4): 160.41; a(O2, N2, C4) 2: 106.08; a(O2, N2, CA2): 154.95; Pharmacophore torsion angle a(C3, CA1, O1, H4) [2]: 57.52; Pharmacophore torsion angle a(H4, O1, O2, H3) [2]: 47.98; Pharmacophore torsion angle a(H4, O1, O2, N2) [2]: 130.71; Pharmacophore torsion angle a(N1, CA1, O1, H4) [2]: 39.33; Pharmacophore torsion angle a(O1, H4, O2, CA1) [2]: −87.28; Pharmacophore torsion angle a(O1, O2, N2, CA2) [3]: 131.79

From patent US12195427B2, “MASP-2 inhibitors and methods of use” (priority 2018, dated 2025)
